# Calls of active or inactive are those of the source. The calls are words filed in the database; no cut-off is given here.
# What was measured:
# [1] = Inhibition of Saccharomyces cerevisiae alpha-glucosidase using pNPG as substrate
# Saccharomyces cerevisiae [2] = assay: Non-competitive inhibition of Saccharomyces cerevisiae alpha-glucosidase assessed as decrease in Vmax without affecting Km using varying levels of p-NPG as substrate by Lineweaver-burk plot analysis
# [3] = Non-competitive inhibition of Saccharomyces cerevisiae alpha-glucosidase assessed as inhibition constant by secondary re-plot of Lineweaver-burk plot analysis
# Saccharomyces cerevisiae [4] = assay: Potency index, ratio of resveratrol IC50 to test compound IC50 for inhibition of Saccharomyces cerevisiae alpha-glucosidase using pNPG as substrate
SMILES,IC50 [1],also measured
COc1ccc(CN2C(=O)/C(=N\Nc3nncs3)c3ccccc32)cc1,46 µM,–
Cc1ccccc1CN1C(=O)/C(=N\Nc2nncs2)c2ccccc21,25.1 µM,–
N#Cc1cccc(CN2C(=O)/C(=N\Nc3nncs3)c3ccccc32)c1,> 200 µM,–
Cc1ccc(CN2C(=O)/C(=N\Nc3nncs3)c3ccccc32)cc1,29.2 µM,–
Oc1ccc(/C=C/c2cc(O)cc(O)c2)cc1 [RESVERATROL],22 µM,–
COc1cccc(CN2C(=O)/C(=N\Nc3nncs3)c3ccccc32)c1,42.3 µM,–
N#Cc1ccccc1CN1C(=O)/C(=N\Nc2nncs2)c2ccccc21,> 200 µM,–
Cc1cccc(CN2C(=O)/C(=N\Nc3nncs3)c3ccccc32)c1,32.3 µM,–

# The next compounds have a lower IC50 [1] than those just listed; values first:
IC50 [1],SMILES,also measured
21 µM,O=C1/C(=N\Nc2nncs2)c2ccccc2N1Cc1ccccc1,–
18.4 µM,O=C1/C(=N\Nc2nncs2)c2ccccc2N1Cc1ccccc1F,–
13.2 µM,O=C1/C(=N\Nc2nncs2)c2ccccc2N1Cc1ccccc1Br,–
8.5 µM,O=C1/C(=N\Nc2nncs2)c2ccccc2N1Cc1ccccc1Cl,–
7.25 µM,O=C1/C(=N\Nc2nncs2)c2ccccc2N1Cc1cccc(Cl)c1,–
3.12 µM,O=C1/C(=N\Nc2nncs2)c2ccccc2N1Cc1ccc(Cl)cc1,inhibition (Saccharomyces cerevisiae [2]): Active; Ki [3]: 2.76 µM; Ratio IC50 (Saccharomyces cerevisiae [4]): 7
